We go through one compound from patent US11576979B2, “Pyrrolobenzodiazepine prodrugs and antibody conjugates thereof” (GENENTECH, INC., priority 2016, dated 2023).

For test [1], the system named is MDA-MB-453 tumor cell line. Description: in vitro tumor cell killing assay, 3 days (Example 13). The class given is cell-based. The conditions noted are these: Homo sapiens, 72 h; MDA-MB-453; 3 days; read-out: EC50. The procedure:
The toxicity of various PBD monomer and dimer boronic acid prodrug compounds were evaluated for cell toxicity. In the in vitro tumor cell killing assay, the cells were added to each well of 96-well microtiter plates at 8,000 cells per well and were incubated overnight at 37° C. in a humidified atmosphere of 5% CO2. The cells were exposed to various concentration of the indicated prodrug, positive control and negative control compounds. Where silvestrol was evaluated, a 1:3 serial dilution was used. After incubation for 3 days, Cell titer-Glo reagent (Promega, Madison Wis.) was added to the wells at 100 μL per well followed by a 10-minute incubation at room temperature, and the luminescent signal was measured using a Packard/Perkin-Elmer TopCount.
The toxicity of PBD monomer boronic acid prodrug 1 was evaluated against MDA-MB-453 tumor cell line for cell viability. PBD monomer control 1 was used as a positive control and PBD monomer control 2 was used as a negative control. The toxicity study was repeated wherein the PBD prodrug and controls were administered in combination with silvestrol. FIG. 15C depicts a plot of MDA-MB-453 cell kill versus drug concentration in μM three days after exposure to: (i) a PBD monomer control; (ii) a PBD monomer control having a benzyl formate moiety at the N10 PBD position; and (iii) a PBD monomer boronic acid prodrug. […]

Test [2] deals with double strand DNA Oligos 1 and 2. Description: DNA oligo binding, LC/MS/UV. The following applies: 100 uM compound, 100 uM DNA, 1 hour, 37 C. Here is the method:
For DNA binding determination, the compounds were incubated at 100 μM with 100 μM double strand DNA Oligos 1 and 2 for 1 hour in 10 mM Bis-Tris, pH 7.1 at 37° C. The single strand DNA Oligos (5′-TATAGAATCTATA-3′ and 3′-ATATCTTAGATAT-5′) were synthesized at Genentech. The samples were analyzed by LC/MS/UV (210-450 nm) on Sciex TripleTOF 5600 on a Hypersil Gold C18 column (100×2.1, 1.9 Thermo Scientific). The column was eluted at 0.4 mL/min by a gradient of buffer A (50 mM hexafluoro-isopropanol and 15 mM diisopropylethylamine) to buffer B (50% A and 50% of 1:1 methanol:acetonitrile), 5% 0-0.5 min, 5-25% B 0.5-25 min, 25-95% B 25-40 min, and to 95% B 40-42 min. The % remaining was an average of the starting DNA oligos remaining in incubations (n=2). The products were characterized by LC/MS in a negative ESI ion mode.

Broadly, the EC50 is the concentration giving half of the maximal effect.

Turning to `C=C1C[C@H]2C=Nc3cc(OC)c(OC)cc3C(=O)N2C1` [PBD monomer control 1, reference compound], in test [1], the EC50 was 164 nM. Also, in test [2], the “% DNA oligo remaining” value came out at 35%.
